Laboratory results published in ChEMBL document CHEMBL1158647, “Synthesis and Pharmacology of Mangostin-3,6-di-O-glucoside” (1979).
The source made the active and inactive calls. The rule behind the calls is not given here.

Columns and labels:
Rattus norvegicus = assay: Increase in pentobarbital-induced sleeping time in Wistar albino rat administered 30 mins before pentobarbital challenge relative to control; type: functional
Mus musculus [1] = assay: Effect on gross behavioral activity in Swiss albino mouse assessed as sedation at 200 mg/kg, ip using smoked drum; type: functional, organism-based; parameters: dose 200 mg/kg
Mus musculus [2] = assay: Effect on gross behavioral activity in Swiss albino mouse assessed as CNS depression at 200 mg/kg, ip using smoked drum; type: functional, organism-based; parameters: dose 200 mg/kg; details: Central nervous system
Canis familiaris [3] = assay: Increase in carotid blood pressure in anesthetized Mongrel dog at 25 mg/kg, iv in presence of adrenaline; type: functional, organism-based; parameters: dose 25 mg/kg; details: Canis lupus familiaris
Canis familiaris [4] = assay: Increase in intestinal movement in anesthetized Mongrel dog at 25 mg/kg, iv; type: functional, organism-based; parameters: dose 25 mg/kg; details: Canis lupus familiaris
Mus musculus [5] = assay: Effect on gross behavioral activity in Swiss albino mouse assessed as CNS depression at 100 mg/kg, ip using smoked drum; type: functional, organism-based; parameters: dose 100 mg/kg; details: Central nervous system
Mus musculus [6] = assay: Effect on gross behavioral activity in Swiss albino mouse assessed as decrease in motor activity at 200 mg/kg, ip using smoked drum; type: functional, organism-based; parameters: dose 200 mg/kg
Canis familiaris [7] = assay: Increase in respiration in anesthetized Mongrel dog at 25 mg/kg, iv; type: functional, organism-based; parameters: dose 25 mg/kg; details: Canis lupus familiaris
Canis familiaris [8] = assay: Increase in carotid blood pressure in anesthetized Mongrel dog at 25 mg/kg, iv; type: functional, organism-based; parameters: dose 25 mg/kg; details: Canis lupus familiaris
Mus musculus [9] = assay: Effect on gross behavioral activity in Swiss albino mouse assessed as spontaneous motor activity at 5 mg/kg, ip after 45 mins using smoked drum; type: functional, organism-based; parameters: dose 5 mg/kg
Mus musculus [10] = assay: Effect on gross behavioral activity in Swiss albino mouse assessed as sedation at 100 mg/kg, ip using smoked drum; type: functional, organism-based; parameters: dose 100 mg/kg
Mus musculus [11] = assay: Effect on gross behavioral activity in Swiss albino mouse assessed as ptosis at 100 mg/kg, ip using smoked drum; type: functional, organism-based; parameters: dose 100 mg/kg
Mus musculus [12] = assay: Effect on gross behavioral activity in Swiss albino mouse assessed as decrease in motor activity at 100 mg/kg, ip using smoked drum; type: functional, organism-based; parameters: dose 100 mg/kg
Canis familiaris [13] = assay: Increase in carotid blood pressure in anesthetized Mongrel dog at 25 mg/kg, iv in presence of Priscol; type: functional, organism-based; parameters: dose 25 mg/kg; details: Canis lupus familiaris
Mus musculus [14] = assay: Effect on gross behavioral activity in Swiss albino mouse assessed as ptosis at 200 mg/kg, ip using smoked drum; type: functional, organism-based; parameters: dose 200 mg/kg
Mus musculus [15] = assay: Effect on gross behavioral activity in Swiss albino mouse assessed as CNS depression at 300 mg/kg, ip using smoked drum; type: functional, organism-based; parameters: dose 300 mg/kg; details: Central nervous system
Mus musculus [16] = assay: Effect on gross behavioral activity in Swiss albino mouse assessed as spontaneous motor activity at 200 mg/kg, ip after 45 mins using smoked drum; type: functional, organism-based; parameters: dose 200 mg/kg

COc1c(O[C@@H]2O[C@H](CO)[C@@H](O)[C@H](O)[C@H]2O)cc2oc3cc(O[C@@H]4O[C@H](CO)[C@@H](O)[C@H](O)[C@H]4O)c(CC=C(C)C)c(O)c3c(=O)c2c1CC=C(C)C
Activity (Rattus norvegicus): 53.81% | Activity (Mus musculus [1]): Active | Activity (Mus musculus [2]): Active | Activity (Canis familiaris [3]): Active | Activity (Canis familiaris [4]): Active | Activity (Mus musculus [5]): Active | Activity (Mus musculus [6]): Active | Activity (Canis familiaris [7]): Active | Activity (Canis familiaris [8]): Active | Activity (Mus musculus [9]): Active | Activity (Mus musculus [10]): Active | Activity (Mus musculus [11]): Active | Activity (Mus musculus [12]): Active | Activity (Canis familiaris [13]): Active | Activity (Mus musculus [14]): Active | Activity (Mus musculus [15]): Active | Activity (Mus musculus [16]): Active

C[C@H](N)Cc1ccccc1
Activity (Mus musculus [9]): Active

CN(C)CCCN1c2ccccc2Sc2ccc(Cl)cc21
Activity (Mus musculus [9]): Active
